The text below walks through data of patent publication EP0929544B1, “TRICYCLIC ANTITUMOR COMPOUNDS BEING FARNESYL PROTEIN TRANSFERASE INHIBITORS” (SCHERING CORPORATION, priority 1996, dated 1998).

For the first assay, the target named is T1, Farnesyl protein transferase (FPT) (Rattus norvegicus, UniProt Q02293+Q04631).
T1 construct: Farnesyl protein transferase (FPT) was partially purified from rat brain; from tissue; host or cells: rat brain
T1 sequence (Q02293 whole entry, one chain of several): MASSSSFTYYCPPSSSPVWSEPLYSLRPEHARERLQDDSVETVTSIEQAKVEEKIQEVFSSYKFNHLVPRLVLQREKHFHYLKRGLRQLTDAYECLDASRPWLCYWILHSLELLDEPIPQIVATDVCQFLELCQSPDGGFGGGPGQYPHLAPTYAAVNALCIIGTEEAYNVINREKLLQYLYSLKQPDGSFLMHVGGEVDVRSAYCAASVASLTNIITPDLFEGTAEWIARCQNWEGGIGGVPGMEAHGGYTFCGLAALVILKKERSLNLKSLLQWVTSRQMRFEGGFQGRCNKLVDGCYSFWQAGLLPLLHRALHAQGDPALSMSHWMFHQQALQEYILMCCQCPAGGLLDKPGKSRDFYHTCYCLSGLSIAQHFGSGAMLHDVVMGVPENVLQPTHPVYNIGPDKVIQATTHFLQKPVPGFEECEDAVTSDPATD
The assay can be described thus: In vitro enzyme assay: inhibition of farnesyl protein transferase (transfer of [3H]farnesyl from [3H]farnesyl pyrophosphate to Ras-CVLS). The format is biochemical.
Settings: not given
The text has this:
1. In vitro enzyme assays: Inhibition of farnesyl protein transferase and geranylgeranyl protein transferase.
Farnesyl protein transferase (FPT) was partially purified from rat brain by ammonium sulfate fractionation followed by Q-Sepharose (Pharmacia, Inc.) anion exchange chromatography essentially as described by Yokoyama et al (Yokoyama, K., et al., (1991), A protein geranylgeranyltransferase from bovine brain: Implications for protein prenylation specificity, Proc. Natl. Acad. Sci USA 88: 5302-5306, the disclosure of which is incorporated herein by reference thereto). Human famesyl protein transferase was also expressed in E. coli, using cDNA clones encoding both the a and b subunits. The methods used were similar to those published (Omer, C. et al., (1993), Characterization of recombinant human farnesyl protein transferase: Cloning, expression, famesyl diphosphate binding, and functional homology with yeast prenyl-protein transferases, Biochemistry 32:5167-5176). Human famesyl protein transferase was partially-purified from the soluble protein fraction of E. coli as described above. […] Two forms of val^12-Ha-Ras protein were prepared as substrates for these enzymes, differing in their carboxy terminal sequence. One form terminated in cysteine-valine-leucine-serine (Ras-CVLS) the other in cystein-valine-leucine-leucine (Ras-CVLL). Ras-CVLS is a substrate for the famesyl protein transferase while Ras-CVLL is a substrate for geranylgeranyl protein transferase I. The cDNAs encoding these proteins were constructed so that the proteins contain an amino-terminal extension of 6 histidine residues. Both proteins were expressed in Escherichia coli and purified using metal chelate affinity chromatography. The radiolabelled isoprenyl pyrophosphate substrates, [^3H]farnesyl pyrophosphate and [^3H]geranylgeranyl pyrophosphate, were purchased from DuPont/New England Nuclear.
Several methods for measuring famesyl protein transferase activity have been described (Reiss et al 1990, Cell 62: 81; Schaber et al 1990, J. Biol. Chem. 265: 14701; Manne et al 1990, PNAS 87: 7541; and Barbacid & Manne 1993, U.S. Patent No. 5,185,248). […] The reaction was allowed to proceed for 30 minutes at room temperature and then stopped with 0.5 ml of 4% sodium dodecyl sulfate (SDS) followed by 0.5 ml of cold 30% TCA. Samples were allowed to sit on ice for 45 minutes and precipitated Ras protein was then collected on GF/C filter paper mats using a Brandel cell harvester. Filter mats were washed once with 6% TCA, 2% SDS and radioactivity was measured in a Wallac 1204 Betaplate BS liquid scintillation counter. Percent inhibition was calculated relative to the DMSO vehicle control.
`CN(C)CCCC(=O)N1CCC(C2c3ncc(Br)cc3CCc3cc(Cl)cc(Cl)c32)CC1` (single isomer, unassigned) [Example 6]: half-maximal inhibition (IC50) was put at 6.5 nM.

Still in this assay, the particulars now being: @ 0.06 µg/µL.
Consider `O=C(CCCC(=O)N1CCC(C2c3ncc(Br)cc3CCc3cc(Cl)cc(Cl)c32)CC1)Nc1ccccc1` (single isomer, unassigned) [Example 19], for which the “FPT inhibition (percent inhibition)” value is 21%@ 0.06 µg/µL.

With `O=C(NCCCCC(=O)N1CCC(C2c3ncc(Br)cc3CCc3cc(Cl)cc(Cl)c32)CC1)c1ccccc1` (single isomer, unassigned) [Example 22], the “FPT inhibition (percent inhibition)” value is listed as 41%@ 0.06 µg/µL.

Staying with this assay, now noted: @ 92 nM; read-out: FPT inhibition (percent inhibition).
Turning to `O=C(CCCC(=O)N1CCC(C2c3ncc(Br)cc3CCc3cc(Cl)cc(Cl)c32)CC1)Nc1ccc(Cl)cc1` (single isomer, unassigned) [Example 20], the inhibition – broadly, the drop in the measured response relative to a control, in per cent – at 0.092 µM was determined as 0%.

Still in this assay, the particulars now being: @ 110 nM; read-out: FPT inhibition (percent inhibition).
As to `NC(=O)NCC(=O)N1CCC(C2c3ncc(Br)cc3CCc3cc(Cl)cc(Cl)c32)CC1` (single isomer, unassigned; (+)) [Example 30], the inhibition at 0.11 µM turned out to be 36%.

In the case of `CS(=O)(=O)NCC(=O)N1CCC(C2c3ncc(Br)cc3CCc3cc(Cl)cc(Cl)c32)CC1` (single isomer, unassigned; (+)) [Example 28], the inhibition at 0.11 µM stood at 43%.

The assay is the same for the next values; noted with them: FPT INHIBITION; read-out: FPT IC50.
For `CN(C)CC(=O)N1CCC(C2c3ncc(Br)cc3CCc3cc(Cl)cc(Cl)c32)CC1` (single isomer, unassigned) [Example 4], the IC50 (as a rule, the concentration needed to halve the response being measured) is 380 nM.

As for `NC(=O)CCCCCC(=O)N1CCC([C@H]2c3ncc(Br)cc3CCc3cc(Cl)cc(Br)c32)CC1` [Example 59, (+)-4-(3,10-DIBROMO-8-CHLORO-6,11-DIHYDRO-5H-BENZO[5,6]CYCLO-HEPTA[1,2-b]PYRIDIN-11(R)-YL)-OMEGA-OXO-1-PIPERIDININE HEPTANAMIDE], the IC50 was determined as 3.3 nM.

`CCOC(=O)CC(=O)N1CCC([C@H]2c3ncc(Br)cc3CCc3cc(Cl)cc(Br)c32)CC1` [Example 45, (+)-ETHYL 4-(3,10-DIBROMO-8-CHLORO-6,11-DIHYDRO-5H-BENZO[5,6]CYCLO-HEPTA[1,2-b]PYRIDIN-11(R)-YL)-BETA-OXO-1-PIPERIDININE PROPANOATE]: the half-maximal inhibitory concentration (IC50) turned out to be 28 nM.

Turning to `CCN(CC)CCC(=O)N1CCC(C2c3ncc(Br)cc3CCc3cc(Cl)cc(Cl)c32)CC1` (single isomer, unassigned) [Example 8], the IC50 was found to be 14 nM.

Turning to `NCCCC(=O)N1CCC(C2c3ncc(Br)cc3CCc3cc(Cl)cc(Cl)c32)CC1` (single isomer, unassigned; (+)) [Example 27, (+)-1-(4-AMINO-1-OXOBUTYL)-4-(3-BROMO-8,10-DICHLORO-6,11-DIHYDRO-5H-BENZO[5,6]CYCLO-HEPTA[1,2-b]PYRIDIN-11-YL) PIPERIDINE], the IC50 is 130 nM.

On to `NCC(=O)N1CCC(C2c3ncc(Br)cc3CCc3cc(Cl)cc(Cl)c32)CC1` (single isomer, unassigned; (+)) [Example 3, (+)-1-(AMINOACETYL)-4-(3-BROMO-8,10-DICHLORO-6,11-DIHYDRO-5H-BENZO[5,6]CYCLO-HEPTA[1,2-b]PYRIDIN-11-YL) PIPERIDINE], for which the IC50 was 1100 nM.

Regarding `O=C(CCCC(=O)N1CCC(C2c3ncc(Br)cc3CCc3cc(Cl)cc(Cl)c32)CC1)Nc1cccnc1` (single isomer, unassigned) [Example 17], the IC50 is roughly 100 nM.

Regarding `COC(=O)CCCC(=O)N1CCC([C@H]2c3ncc(Br)cc3CCc3cc(Cl)cc(Br)c32)CC1` [Example 51, (+)-METHYL 4-(3,10-DIBROMO-8-CHLORO-6,11-DIHYDRO-5H-BENZO[5,6]CYCLO-HEPTA[1,2-b]PYRIDIN-11(R)-YL)-DELTA-OXO-1-PIPERIDININE PENTANOATE], the IC50 was 19 nM.

On to `NC(=O)N1CCC(C2c3ncc(Br)cc3CCc3cc(Cl)cc(Cl)c32)CC1` (single isomer, unassigned; (+)) [Example 1, (+)-4-(3-BROMO-8,10-DICHLORO-6,11-DIHYDRO-5H-BENZO[5,6]CYCLOHEPTA[1,2-b]PYRIDIN-11-YL)-1-PIPERIDINE CARBOXAMIDE, reference compound], for which the IC50 is 390 nM.

For the compound `CN(C)CCC(=O)N1CCC(C2c3ncc(Br)cc3CCc3cc(Cl)cc(Cl)c32)CC1` (single isomer, unassigned) [Example 5], the IC50 was 56 nM.

With `CC(C)(C)OC(=O)NCC(=O)N1CCC(C2c3ncc(Br)cc3CCc3cc(Cl)cc(Cl)c32)CC1` (single isomer, unassigned) [Example 26], the IC50 turned out to be 540 nM.

With `COC(=O)CCCCCC(=O)N1CCC([C@H]2c3ncc(Br)cc3CCc3cc(Cl)cc(Br)c32)CC1` [Example 57, (+)-METHYL 4-(3,10-DIBROMO-8-CHLORO-6,11-DIHYDRO-5H-BENZO[5,6]CYCLO-HEPTA[1,2-b]PYRIDIN-11(R)-YL)-OMEGA-OXO-1-PIPERIDININE HEPTANOATE], the 50% inhibitory concentration (IC50) stood at 11 nM.

Regarding `COC(=O)CCCCC(=O)N1CCC([C@H]2c3ncc(Br)cc3CCc3cc(Cl)cc(Br)c32)CC1` [Example 54, (+)-METHYL 4-(3,10-DIBROMO-8-CHLORO-6,11-DIHYDRO-5H-BENZO[5,6]CYCLO-HEPTA[1,2-b]PYRIDIN-11(R)-YL)-EPSILON-OXO -1-PIPERIDININE HEXANOATE], the IC50 came to 15 nM.

For `O=C(CCCCCN1C(=O)C=CC1=O)N1CCC(C2c3ncc(Br)cc3CCc3cc(Cl)cc(Cl)c32)CC1` (single isomer, unassigned) [Example 23], the IC50 was found to be 620 nM.

In the case of `O=C(CCN1CCCCC1)N1CCC(C2c3ncc(Br)cc3CCc3cc(Cl)cc(Cl)c32)CC1` (single isomer, unassigned) [Example 9], the IC50 amounted to 6 nM.

Regarding `NC(=O)CC(=O)N1CCC([C@H]2c3ncc(Br)cc3CCc3cc(Cl)cc(Br)c32)CC1` [Example 47, 4-(3,10-DIBROMO-8-CHLORO-6,11-DIHYDRO-5H-BENZO[5,6]CYCLO-HEPTA[1,2-b]PYRIDIN-1(R)-YL)-BETA-OXO-1-PIPERIDININE PROPANAMIDE], the IC50 came out at 68 nM.

With `NC(=O)CCC(=O)N1CCC(C2c3ncc(Br)cc3CCc3cc(Cl)cc(Cl)c32)CC1` (single isomer, unassigned) [Example 12], the IC50 was 61 nM.

In the case of `CN(C)CCCCC(=O)N1CCC(C2c3ncc(Br)cc3CCc3cc(Cl)cc(Cl)c32)CC1` (single isomer, unassigned) [Example 7], the IC50 worked out at 22 nM.

With `CC(=O)NCCCC(=O)N1CCC(C2c3ncc(Br)cc3CCc3cc(Cl)cc(Cl)c32)CC1` (single isomer, unassigned) [Example 15], the IC50 worked out at 63 nM.

Staying with this assay, now noted: read-out: FPT IC50; FPT INHIBITION
As for `O=C(O)CCCCC(=O)N1CCC([C@H]2c3ncc(Br)cc3CCc3cc(Cl)cc(Br)c32)CC1` [Example 55, (+)-SODIUM 4-(3,10-DIBROMO-8-CHLORO-6,11-DIHYDRO-5H-BENZO[5,6]CYCLO-HEPTA[1,2-b]PYRIDIN-11(R)-YL)-EPSILON-OXO-1-PI[…]], the IC50 turned out to be 17 nM.

Turning to `O=C(O)CCC(=O)N1CCC([C@H]2c3ncc(Br)cc3CCc3cc(Cl)cc(Br)c32)CC1` [Example 49, (+)-SODIUM 4-(3,10-DIBROMO-8-CHLORO-6,11-DIHYDRO-5H-BENZO[5,6]CYCLO-HEPTA[1,2-b]PYRIDIN-11(R)-YL)-GAMMA-OXO-1-PI[…]], the IC50 was found to be 270 nM.

Turning to `COC(=O)CCC(=O)N1CCC([C@H]2c3ncc(Br)cc3CCc3cc(Cl)cc(Br)c32)CC1` [Example 48, (+)-METHYL 4-(3,10-DIBROMO-8-CHLORO-6,11-DIHYDRO-5H-BENZO[5,6]CYCLO-HEPTA[1,2-b]PYRIDIN-11(R)-YL)-GAMMA-OXO-1-PI[…]], the IC50 was 9 nM.

For `O=C(O)CC(=O)N1CCC([C@H]2c3ncc(Br)cc3CCc3cc(Cl)cc(Br)c32)CC1` [Example 46, (+)-SODIUM 4-(3,10-DIBROMO-8-CHLORO-6,11-DIHYDRO-5H-BENZO[5,6]CYCLO-HEPTA[1,2-b]PYRIDIN-11(R)-YL)-BETA-OXO-1-PI[…]], the IC50 was 78 nM.

The same assay, now with this note: read-out: FPT inhibition (percent inhibition).
In the case of `O=C(CCCN1C(=O)c2ccncc2C1=O)N1CCC(C2c3ncc(Br)cc3CCc3cc(Cl)cc(Cl)c32)CC1` (single isomer, unassigned) [Example 33, 4-(8,10-DICHLORO-3-BROMO-6,11-DIHYDRO-5H-BENZO[5,6]CYCLO-HEPTA[1,2-b]PYRIDIN-11-YL)-1-[4-(1,3-DIHYDRO-1,3-DIOXO-2H-PYRROLO-[3,4c]-PYRIDINE-2-YL)-1-OXOBUTYL]PIPERIDINE], the inhibition at 0.0934 µM turned out to be 38.7%.
